Assay results: article PMC9944328 (Nature Communications, 2023)

System: SSTR2 mutants
Assay: SSTRs Gi-mediated cAMP inhibition, GloSensor, HEK293, 5 μM forskolin, 15 min room temperature (SSTR2 mutants)
Type: cell-based, human
Conditions: for Fold of WT: Gi signaling EC50
Method: The levels of the intracellular 3′, 5′-cyclic AMP (cAMP) were measured by the GloSensor cAMP assay (Promega) as described in the previous studies[28],[41] which has been widely used. The human full-length SSTRs and mutants were cloned into the pcDNA3.1+ vector with a HA signal sequence followed by a Flag tag at the N-terminus. HEK293 cells (ATCC, CRL-1573) were seeded into 6-well microplates at a density of 1.0 × 10^6 cells/well and cultured for 24 h at 37 °C with 5% CO2. Cells were then co-transfected with SSTR wild-type or mutants and GloSensor plasmids. After 24 h of transfection, the cells were dissociated with TrypLE™ Express Enzyme (1X) (Thermo Fisher Scientific) and collected by centrifugation at 500 × g for 5 min. Then the collected cells were suspended in Hank’s balanced salt solution [HBSS (Thermo Fisher Scientific)] supplemented with […] (YEASEN), and then the suspension cells were seeded into 96-well plates with 90 μl/well. After incubating at room temperature for 40 min, 5 μM forskolin and ligands diluted in HBSS were added to each well and the plates were incubated at room temperature for 15 min. […] were measured using the Synergy H1 microplate reader (BioTek) and the data presented are means of at least three independent experiments.

[1] = Gi signaling, SSTR2 D295(7.36)A, n=3
[2] = Gi signaling, SSTR2 F127(3.37)A, n=3
[3] = Gi signaling, SSTR2 F208(5.38)A, n=3
[4] = Gi signaling, SSTR2 F265(6.44)A, n=3
[5] = Gi signaling, SSTR2 F294(7.35)A, n=3
[6] = Gi signaling, SSTR2 I130(3.40)A, n=3
[7] = Gi signaling, SSTR2 I195(45.52)A, n=3
[8] = Gi signaling, SSTR2 I284ECL3A, n=3
[9] = Gi signaling, SSTR2 K291(7.32)A, n=3
[10] = Gi signaling, SSTR2 L99(2.60)A, n=3
[11] = Gi signaling, SSTR2 N276(6.55)A, n=3
[12] = Gi signaling, SSTR2 P220(5.50)A, n=3
[13] = Gi signaling, SSTR2 Q102(2.63)A, n=3
[14] = Gi signaling, SSTR2 T194(45.51)A, n=3
[15] = Gi signaling, SSTR2 V103(2.64)A, n=3
[16] = Gi signaling, SSTR2 W269(6.48)A, n=3
[17] = Gi signaling, SSTR2 Y50(1.39)A, n=3
[18] = Gi signaling, SSTR2 Y205(5.35)A, n=3
[19] = Gi signaling, SSTR2 Y302(7.43)A, n=3

## N#Cc1cccc(-c2ccc3ncc(-c4cc(F)cc(F)c4)c(N4CCC(N)CC4)c3c2)c1O [paltusotine]
D295(7.36) substituted with a bulkier side chain, SSTR2
  Activation potency of mutant: reduced the activation potency
D295A-1 (run 1)
  Bottom (best-fit value), cAMP inhibition: -5.811
  LogEC50 (best-fit value), cAMP inhibition: -7.797
  Span (best-fit value), cAMP inhibition: 125.1
  Top (best-fit value), cAMP inhibition: 119.3
D295A-2 (run 2)
  Bottom (best-fit value), cAMP inhibition: -4.778
  LogEC50 (best-fit value), cAMP inhibition: -7.798
  Span (best-fit value), cAMP inhibition: 119.6
  Top (best-fit value), cAMP inhibition: 114.8
D295A-3 (run 3)
  Bottom (best-fit value), cAMP inhibition: -4.901
  LogEC50 (best-fit value), cAMP inhibition: -7.743
  Span (best-fit value), cAMP inhibition: 121.4
  Top (best-fit value), cAMP inhibition: 116.5
D295F, run 1
  Bottom (best-fit): -4.815
  LogEC50: -9.49
  Span (best-fit): 83.08
  Top (best-fit): 78.27
D295F, run 2
  Bottom (best-fit): -4.16
  LogEC50: -9.689
  Span (best-fit): 84.37
  Top (best-fit): 80.21
D295F, run 3
  Bottom (best-fit): 9.942
  LogEC50: -8.808
  Span (best-fit): 67.74
  Top (best-fit): 77.68
F208A-1 (run 1)
  Bottom (best-fit value): 6.193
  LogEC50 (best-fit value): -7.826
  Span (best-fit value): 90.63
  Top (best-fit value): 96.82
F208A-2 (run 2)
  Bottom (best-fit value): 3.33
  LogEC50 (best-fit value): -7.007
  Span (best-fit value): 88.37
  Top (best-fit value): 91.7
F208A-3 (run 3)
  Bottom (best-fit value): -2.358
  LogEC50 (best-fit value): -7.101
  Span (best-fit value): 89.17
  Top (best-fit value): 86.81
F265A-1 (run 1)
  Bottom (best-fit value): -8.311
  LogEC50 (best-fit value): -7.946
  Span (best-fit value): 113.6
  Top (best-fit value): 105.3
F265A-2 (run 2)
  Bottom (best-fit value): -6.152
  LogEC50 (best-fit value): -7.834
  Span (best-fit value): 121
  Top (best-fit value): 114.8
F265A-3 (run 3)
  Bottom (best-fit value): -8.585
  LogEC50 (best-fit value): -8.008
  Span (best-fit value): 129.6
  Top (best-fit value): 121
F272A-1 (run 1)
  Bottom (best-fit value): 9.906
  LogEC50 (best-fit value), cAMP inhibition: -7.753
  Span (best-fit value), cAMP inhibition: 47.19
  Top (best-fit value): 57.1
F272A-2 (run 2)
  Bottom (best-fit value): 0.969
  LogEC50 (best-fit value), cAMP inhibition: -7.573
  Span (best-fit value), cAMP inhibition: 51.72
  Top (best-fit value): 52.69
F272A-3 (run 3)
  Bottom (best-fit value): 2.026
  LogEC50 (best-fit value), cAMP inhibition: -6.838
  Span (best-fit value), cAMP inhibition: 59.81
  Top (best-fit value): 61.84
F294A-1 (run 1)
  Bottom (best-fit value), cAMP inhibition: 3.955
  LogEC50 (best-fit value), cAMP inhibition: -8.447
  Span (best-fit value), cAMP inhibition: 85.58
  Top (best-fit value), cAMP inhibition: 89.53
F294A-2 (run 2)
  Bottom (best-fit value), cAMP inhibition: -11.05
  LogEC50 (best-fit value), cAMP inhibition: -8.376
  Span (best-fit value), cAMP inhibition: 101.1
  Top (best-fit value), cAMP inhibition: 90.09
F294A-3 (run 3)
  Bottom (best-fit value), cAMP inhibition: 15.03
  LogEC50 (best-fit value), cAMP inhibition: -9.824
  Span (best-fit value), cAMP inhibition: 106.4
  Top (best-fit value), cAMP inhibition: 121.4
F294Y, run 1
  Bottom (best-fit): 11.7
  LogEC50: -9.133
  Span (best-fit): 95.55
  Top (best-fit): 107.3
F294Y, run 2
  Bottom (best-fit): 3.363
  LogEC50: -9.003
  Span (best-fit): 99.71
  Top (best-fit): 103.1
F294Y, run 3
  Bottom (best-fit): -9.817
  LogEC50: -9.17
  Span (best-fit): 128.4
  Top (best-fit): 118.6
SSTR2 D295(7.36)A
  Fold of WT: 1.30
SSTR2 F127(3.37)A
  Fold of WT: 0.54
SSTR2 F208(5.38)A
  Fold of WT: 34.16
SSTR2 F265(6.44)A
  Fold of WT: 6.35
SSTR2 F272A
  Fold of WT: 33.58
SSTR2 F294(7.35)A
  Fold of WT: 1.40
SSTR2 I130(3.40)A
  Fold of WT: 10.09
SSTR2 I195(45.52)A
  Fold of WT: 44.36
SSTR2 K291(7.32)A
  Fold of WT: 2.78
SSTR2 L99(2.60)A
  Fold of WT: 9.09
SSTR2 N276(6.55)A
  Fold of WT: 0.88
SSTR2 P220(5.50)A
  Fold of WT: 1.71
SSTR2 Q102(2.63)A
  Fold of WT: 16.51
SSTR2 T194(45.51)A
  Fold of WT: 51.98
SSTR2 V103(2.64)A
  Fold of WT: 17.54
SSTR2 W269(6.48)A
  Fold of WT: 0.23
SSTR2 Y50(1.39)A
  Fold of WT: 1.90
SSTR2 Y205(5.35)A
  Fold of WT: 0.26
SSTR2 Y302(7.43)A
  Fold of WT: 6.27
[1]
  EC50: 2.46 ± 1.67 nM
  Emax: 107.80±3.11 %WT
[2]
  EC50: 1.02 ± 1.29 nM
  Emax: 107.70±2.32 %WT
[3]
  EC50: 64.2 ± 2.53 nM
  Emax: 91.78±2.89 %WT
[4]
  EC50: 11.9 ± 1.45 nM
  Emax: 113.70±4.57 %WT
Gi signaling, SSTR2 F272A, n=3
  EC50: 63.1 ± 4.1 nM
  Emax: 57.21±2.64 %WT
[5]
  EC50: 2.64 ± 1.26 nM
  Emax: 100.30±10.53 %WT
[6]
  EC50: 19 ± 2.64 nM
  Emax: 116.50±4.76 %WT
[7]
  EC50: 83.4 ± 1.65 nM
  Emax: 106.20±8.71 %WT
[8]
  EC50: 1.22 nM
  Emax: 113.80±5.04 %WT
[9]
  EC50: 5.22 ± 8.67 nM
  Emax: 97.49±6.65 %WT
[10]
  EC50: 17.1 ± 5.16 nM
  Emax: 107.80±2.34 %WT
[11]
  EC50: 1.65 ± 3.51 nM
  Emax: 89.08±4.63 %WT
[12]
  EC50: 3.22 ± 1.38 nM
  Emax: 116.00±5.23 %WT
[13]
  EC50: 31 ± 6.59 nM
  Emax: 97.26±5.45 %WT
[14]
  EC50: 97.7 ± 2.2 nM
  Emax: 85.51±3.13 %WT
[15]
  EC50: 33 ± 2.87 nM
  Emax: 87.33±6.38 %WT
[16]
  EC50: 0.44 nM
  Emax: 98.94±12.38 %WT
[17]
  EC50: 3.6 ± 6.86 nM
  Emax: 106.10±0.90 %WT
[18]
  EC50: 0.48 nM
  Emax: 98.71±2.78 %WT
[19]
  EC50: 11.8 ± 3.12 nM
  Emax: 55.80±2.34 %WT
I195A, run 1, best-fit
  EC50: 83.4 nM
  LogEC50: -7.079
I195A, run 2, best-fit
  EC50: 112 nM
  LogEC50: -6.952
I195A, run 3, best-fit
  EC50: 54.8 nM
  LogEC50: -7.261
I195M, run 1
  Bottom (best-fit): 2.531
  EC50: 8.24 nM
  LogEC50: -8.084
  Span (best-fit): 94.08
  Top (best-fit): 96.61
I195M, run 2
  Bottom (best-fit): -2.367
  EC50: 4.64 nM
  LogEC50: -8.333
  Span (best-fit): 106.3
  Top (best-fit): 103.9
I284A, run 1, best-fit
  EC50: 1.25 nM
  LogEC50: -8.902
I284A, run 2, best-fit
  EC50: 1.14 nM
  LogEC50: -8.945
I284A, run 3, best-fit
  EC50: 1.28 nM
  LogEC50: -8.894
K291A-1 (run 1)
  Bottom (best-fit value), cAMP inhibition: 1.006
  LogEC50 (best-fit value), cAMP inhibition: -8.362
  Span (best-fit value), cAMP inhibition: 92.81
  Top (best-fit value), cAMP inhibition: 93.82
K291A-2 (run 2)
  Bottom (best-fit value), cAMP inhibition: -4.234
  LogEC50 (best-fit value), cAMP inhibition: -8.83
  Span (best-fit value), cAMP inhibition: 114.6
  Top (best-fit value), cAMP inhibition: 110.4
K291A-3 (run 3)
  Bottom (best-fit value), cAMP inhibition: -10.93
  LogEC50 (best-fit value), cAMP inhibition: -8.158
  Span (best-fit value), cAMP inhibition: 99.18
  Top (best-fit value), cAMP inhibition: 88.26
L99A, run 1, best-fit
  EC50: 6.78 nM
  LogEC50: -8.169
L99A, run 2, best-fit
  EC50: 22.1 nM
  LogEC50: -7.655
L99A, run 3, best-fit
  EC50: 22.4 nM
  LogEC50: -7.65
N276A-1 (run 1)
  Bottom (best-fit value), cAMP inhibition: -4.414
  LogEC50 (best-fit value), cAMP inhibition: -9.003
  Span (best-fit value), cAMP inhibition: 102.7
  Top (best-fit value), cAMP inhibition: 98.25
N276A-2 (run 2)
  Bottom (best-fit value), cAMP inhibition: -3.382
  LogEC50 (best-fit value), cAMP inhibition: -8.659
  Span (best-fit value), cAMP inhibition: 88.97
  Top (best-fit value), cAMP inhibition: 85.59
N276A-3 (run 3)
  Bottom (best-fit value), cAMP inhibition: -1.142
  LogEC50 (best-fit value), cAMP inhibition: -8.752
  Span (best-fit value), cAMP inhibition: 84.55
  Top (best-fit value), cAMP inhibition: 83.41
P220A-1 (run 1)
  Bottom (best-fit value): 6.519
  LogEC50 (best-fit value): -8.456
  Span (best-fit value): 112
  Top (best-fit value): 118.5
P220A-2 (run 2)
  Bottom (best-fit value): 4.552
  LogEC50 (best-fit value): -8.51
